Experimental findings from patent US20230096028A1, “BICYCLIC HETEROCYCLYL COMPOUNDS AND USES THEREOF” (Revolution Medicines, Inc., priority 2019, published 2023) are described below.

Read-outs that look alike come from different tables or passages of the source.

Experiment [1] concerns PC-9 cells (EGFR Ex19Del). Kind of experiment: Potency Assay: pERK (SOS1 pERK IC50 Assay, AlphaLISA SureFire Ultra p-ERK1/2). In kind it is cell-based. The conditions noted are these: Homo sapiens, read-out: SOS1 pERK IC50. In outline: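 Cellular pERK1/2 by AlphaLISA SureFire Ultra after 1 h compound exposure (37° C., highest concentration 10 μM, 3-fold steps, duplicates) of EGFR Ex19Del PC-9 cells seeded the day before. A 4-parameter fit of signal versus log concentration gives IC50.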

In experiment [2] the target is T1, SOS1 catalytic domain (residues 564-1049) (Homo sapiens, UniProt Q07889).
T1 sequence (Q07889 564-1049): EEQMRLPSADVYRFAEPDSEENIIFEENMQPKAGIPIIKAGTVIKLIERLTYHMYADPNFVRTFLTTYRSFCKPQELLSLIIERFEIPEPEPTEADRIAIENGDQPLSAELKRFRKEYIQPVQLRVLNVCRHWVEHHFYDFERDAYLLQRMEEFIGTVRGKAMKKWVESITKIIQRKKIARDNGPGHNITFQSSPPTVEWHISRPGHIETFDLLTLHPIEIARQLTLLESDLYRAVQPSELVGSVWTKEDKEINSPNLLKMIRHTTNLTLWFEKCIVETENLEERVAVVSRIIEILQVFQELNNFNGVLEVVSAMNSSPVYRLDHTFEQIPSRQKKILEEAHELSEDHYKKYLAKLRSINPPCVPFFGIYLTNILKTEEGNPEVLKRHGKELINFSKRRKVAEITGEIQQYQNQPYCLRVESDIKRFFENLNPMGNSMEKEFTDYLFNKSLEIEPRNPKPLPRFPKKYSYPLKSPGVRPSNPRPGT
In words: Mode of Action Assay: inhibition of SOS1 nucleotide exchange activity (SOS1 TR-FRET IC50 Assay). (In general: In TR-FRET formats the signal depends on donor and acceptor labels being close together.)

[3] abbreviates: PC-9 cells (EGFR Ex19Del), 1 hour incubation, AlphaLISA p-ERK1/2.

For `CC(Nc1nc(Cl)nc2c1CN(C(=O)N1CCOCC1)C2)c1cccc(C(F)(F)CO)c1Cl` (stereo not shown) [Example 506, 2-[2-chloro-3-(1-{[2-chloro-6-(morpholine-4-carbonyl)-5H,6H,7H-pyrrolo[3,4-d]pyrimidin-4-yl]amino}ethyl)phenyl]-2,2-difluoro-ethan-1-ol], the IC50 in experiment [1] (setting [3]) and in experiment [2] was below 1000 nM in each case.
Take `C[C@@H](Nc1nc(CNC2COC2)nc2c1CN(C(=O)N1CCOCC1)C2)c1cccc(C(F)F)c1F` [Example 509, N-[(1R)-1-[3-(difluoromethyl)-2-fluorophenyl]ethyl]-6-(morpholine-4-carbonyl)-2-{[(oxetan-3-yl)amino]methyl}-5H,6H,7H-pyrrolo-[3,4-d]pyrimidin-4-amine]: the concentration for half-maximal inhibition (IC50) in experiment [1] (setting [3]) is above 1000 nM; in experiment [2] it was below 1000 nM.
On to `CC(O)c1cccc(C(C)Nc2ncnc3c2CN(C(=O)N2CCOCC2)C3)c1` (stereo not shown) [Example 516], for which the IC50 in experiment [1] (setting [3]) and in experiment [2] was above 1000 nM in each case.
As to `CC(Nc1nc(Cl)nc2c1CN(C(=O)N1CCOCC1)C2)c1cccc(C2(F)CNC2)c1` (stereo not shown) [Example 517, [2-chloro-4-[1-[3-(3-fluoroazetidin-3-yl)phenyl]ethylamino]-5,7-dihydropyrrolo[3,4-d]pyrimidin-6-yl]-morpholino-methanone], the IC50 in experiment [1] (PC-9, 1 h) is above 1000 nM; in experiment [2], below 1000 nM.
Consider `C[C@@H](Nc1nc(Cl)nc2c1CN(C(=O)N1CCOCC1)C2)c1cccc(N2CC(O)C2)c1` [Example 518, [2-chloro-4-[[(1R)-1-[3-(3-hydroxyazetidin-1-yl)phenyl]ethyl]amino]-5,7-dihydropyrrolo[3,4-d]pyrimidin-6-yl]-morpholino-methanone], for which the IC50 is above 1000 nM in experiment [1] (setting [3]) and below 1000 nM in experiment [2].
The matching figures for `C[C@@H](Nc1nc(Cl)nc2c1CN(C(=O)N1CCOCC1)C2)c1cccc(C(F)CO)c1` (stereo partly drawn) [Example 519, [2-chloro-4-[[(1R)-1-[3-(1-fluoro-2-hydroxy-ethyl)phenyl]ethyl]amino]-5,7-dihydropyrrolo[3,4-d]pyrimidin-6-yl]-morpholino-methanone]: above 1000 nM and below 1000 nM.
With `C[C@@H](Nc1nc(Cl)nc2c1CN(C(=O)N1CCOCC1)C2)c1cccc(NC2CC2)c1` [Example 520, 2-chloro-N-[(1R)-1-[3-(cyclopropylamino)phenyl]ethyl]-6-(morpholine-4-carbonyl)-5H,6H,7H-pyrrolo[3,4-d]pyrimidin-4-amine], the IC50 in experiment [1] (PC-9, 1 h) was above 1000 nM; in experiment [2], above 1000 nM.
Turning to `CC(Nc1nc(Cl)nc2c1CN(C(=O)N1CCOCC1)C2)c1nccc(C(F)F)c1F` (stereo not shown) [Example 521, 2-chloro-N-{1-[4-(difluoromethyl)-3-fluoropyridin-2-yl]ethyl}-6-(morpholine-4-carbonyl)-5H,6H,7H-pyrrolo[3,4-d]pyrimidin-4-amine], the IC50 is above 1000 nM in experiment [1] (PC-9, 1 h) and above 1000 nM in experiment [2].
For the compound `C[C@@H](Nc1nc(Cl)nc2c1CN(C(=O)N1CCOCC1)C2)c1cccc(C(F)(F)OC2CC2)c1` [Example 524, 2-chloro-N-[(1R)-1-[3-(cyclopropoxydifluoromethyl)phenyl]ethyl]-6-(morpholine-4-carbonyl)-5H,6H,7H-pyrrolo[3,4-d]pyrimidin-4-amine], the IC50 was above 1000 nM in experiment [1] (setting [3]) and below 1000 nM in experiment [2].
Consider `C[C@@H](Nc1nc(Cl)nc2c1CN(C(=O)N1CCOCC1)C2)c1cccc(C(F)(F)COC2CC2)c1` [Example 531, [2-chloro-4-[[(1R)-1-[3-[2-(cyclopropoxy)-1,1-difluoro-ethyl]phenyl]ethyl]amino]-5,7-dihydropyrrolo[3,4-d]pyrimidin-6-yl]-morpholino-methanone], for which the 50% inhibitory concentration (IC50) in experiment [1] (PC-9, 1 h) is below 1000 nM; in experiment [2], below 1000 nM.
For `CC(Nc1nc(Cl)nc2c1CN(C(=O)N1CCOCC1)C2)c1ccc(-c2ccccc2)s1` (stereo not shown) [Example 532, [2-chloro-4-[1-(5-phenyl-2-thienyl)ethylamino]-5,7-dihydropyrrolo[3,4-d]pyrimidin-6-yl]-morpholino-methanone], the IC50 was above 1000 nM in experiment [1] (PC-9, 1 h) and above 1000 nM in experiment [2].

As usually defined, the IC50 is the point on the concentration scale where inhibition reaches its midpoint.
